This note sets out measurements from US9877921B2 (NOVA SOUTHEASTERN UNIVERSITY, priority 2011, dated 2018).

The nature of the data set: Discoloration (degradation) after nanoparticle processing by microfluidization. It is filed as physicochemical. Particulars: after high energy fluidization. The method, then: Nanoparticles were fabricated from epinephrine base or epinephrine bitartrate (Bit) using high energy fluidization (microfluidization) techniques. […] Particles sizes were measured before and after size reduction using a Mastersizer (Malvern) and/or a NiComp 370 Submicron Particle Sizer (NiComp). The particles were lyophilized (freeze-dried) using a bench top lyophilizer (ART Inc.).
The main problem was discoloration (a brown color formed) due to degradation.

Consider `CNC[C@H](O)c1ccc(O)c(O)c1` [Epinephrine Bit, epinephrine bitartrate], for which the “Sample Color after Processing (discoloration indicating instability)” value is on record as “did not show any discoloration”.
